Data published in paper PMC3743849, “A Yeast-Based Chemical Screen Identifies a PDE Inhibitor That Elevates Steroidogenesis in Mouse Leydig Cells via PDE8 and PDE4 Inhibition” (PLoS ONE, 2013).

Assays:
PDE8 enzymes = system: PDE8 enzymes; parameters: method as in PMID 9671792, PMID 9784418; settings: ref [6], [11]; cited from earlier work
recombinant human PDE3B = target: T1, recombinant human PDE3B (Homo sapiens, UniProt Q13370); assay: In vitro PDE assay (Ba(OH)2 precipitation), PDE3B; type: biochemical; settings: 30 nM cGMP substrate; three independent experiments
T1 construct: purchased BPS Bioscience Inc
Experimental: (§1) In vitro PDE assays were performed as previously described, using the Ba(OH)2 precipitation assay, with recombinant human PDE1C, PDE3B, PDE5A1, PDE8A, PDE9A2, PDE10A1, PDE11A4 (BPS Bioscience Inc.), rat PDE2A (BPS Bioscience Inc.), human PDE7A (BIOMOL International), and human PDE4A10 enzymes (gift from Dr. Hengming Ke). Substrate concentrations were 120 nM cGMP (PDE1C), 1 µM cGMP (PDE2A), 30 nM cGMP (PDE3B), 50 nM cAMP (PDE4A), 520 nM cGMP (PDE5A), 10 nM cAMP (PDE7A), 10 nM cAMP (PDE8A), 70 nM cGMP (PDE9A), 40 nM cAMP (PDE10A), and 120 nM cGMP (PDE11A). Reactions were performed in 50 mM Tris·HCl (pH 8.5), 10 mM MgCl2 (for all enzymes except PDE8) or 4 mM MnCl2 (for PDE8A), and 5 mM dithiothreitol, and proceeded for 30 min for PDE8A, 6 min for PDE10A and 15 min for other PDEs, so that reactions were linear with time. Reactions were stopped with 200 µL 0.2 M ZnSO4, after which 5′-AMP was precipitated with 200 µL 0.25 N Ba(OH)2 by centrifugation for 15 min at 14000 rpm. The remaining radioactivity in the supernatant was measured in 4 mL of scintillation fluid. The amount of hydrolysis was generally limited to 30 percent conversion and IC50 values were calculated as the means of three independent experiments. Substrate concentrations were ≤0.1*Km for each enzyme, thus IC50 values approximate the Ki values.

recombinant human PDE8A = target: T2, recombinant human PDE8A (Homo sapiens, UniProt O60658); assay: In vitro PDE assay (Ba(OH)2 precipitation), PDE8A; type: biochemical; settings: for IC50: 10 nM cAMP substrate
T2 construct: purchased BPS Bioscience Inc
Experimental: as §1

[1] = target: T3, recombinant human PDE10A1 (Homo sapiens, UniProt Q9Y233); assay: In vitro PDE assay (Ba(OH)2 precipitation), PDE10A; type: biochemical; settings: 40 nM cAMP substrate; mean ± SD of three independent experiments
T3 construct: purchased BPS Bioscience Inc
Experimental: as §1

recombinant human PDE9A2 = target: T4, recombinant human PDE9A2 (Homo sapiens, UniProt O76083); assay: In vitro PDE assay (Ba(OH)2 precipitation), PDE9A; type: biochemical; settings: 70 nM cGMP substrate; three independent experiments
T4 construct: purchased BPS Bioscience Inc
Experimental: as §1

rat PDE2A = target: T5, rat PDE2A (Rattus norvegicus, UniProt Q01062); assay: In vitro PDE assay (Ba(OH)2 precipitation), PDE2A; type: biochemical; settings: 1 µM cGMP substrate; mean ± SD of three independent experiments
T5 construct: purchased BPS Bioscience Inc
T5 sequence (Q01062 1-928): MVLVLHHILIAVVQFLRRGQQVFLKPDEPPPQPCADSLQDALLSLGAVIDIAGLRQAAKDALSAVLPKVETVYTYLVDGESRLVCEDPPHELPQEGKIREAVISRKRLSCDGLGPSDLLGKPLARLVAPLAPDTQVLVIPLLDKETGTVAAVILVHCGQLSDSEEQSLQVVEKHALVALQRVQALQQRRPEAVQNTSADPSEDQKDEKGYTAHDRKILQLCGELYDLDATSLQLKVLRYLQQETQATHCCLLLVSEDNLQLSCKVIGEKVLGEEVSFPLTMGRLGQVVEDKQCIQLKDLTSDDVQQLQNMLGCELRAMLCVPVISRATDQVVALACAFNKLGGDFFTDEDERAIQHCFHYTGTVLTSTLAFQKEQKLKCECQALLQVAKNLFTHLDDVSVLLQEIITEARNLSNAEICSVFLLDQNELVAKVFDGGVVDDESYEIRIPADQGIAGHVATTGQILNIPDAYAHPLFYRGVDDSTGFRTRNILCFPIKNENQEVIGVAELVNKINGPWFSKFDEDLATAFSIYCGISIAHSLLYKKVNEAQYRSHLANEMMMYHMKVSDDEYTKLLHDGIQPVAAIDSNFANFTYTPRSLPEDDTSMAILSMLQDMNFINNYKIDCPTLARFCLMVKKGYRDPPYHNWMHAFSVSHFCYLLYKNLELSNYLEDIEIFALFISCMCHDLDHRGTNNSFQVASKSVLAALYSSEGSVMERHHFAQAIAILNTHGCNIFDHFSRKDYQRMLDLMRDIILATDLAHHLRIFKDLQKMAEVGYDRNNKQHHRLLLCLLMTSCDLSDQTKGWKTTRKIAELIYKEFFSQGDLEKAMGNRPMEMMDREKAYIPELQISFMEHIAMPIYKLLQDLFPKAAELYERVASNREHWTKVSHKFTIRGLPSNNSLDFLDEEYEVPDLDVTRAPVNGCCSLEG
Experimental: as §1

[2] = target: T6, recombinant human PDE11A4 (Homo sapiens, UniProt Q9HCR9); assay: In vitro PDE assay (Ba(OH)2 precipitation), PDE11A; type: biochemical; settings: 120 nM cGMP substrate; mean ± SD of three independent experiments
T6 construct: purchased BPS Bioscience Inc
Experimental: as §1

MA-10 Leydig tumor cells = assay: Progesterone release from MA-10 Leydig tumor cells; type: cell-based, mouse; settings: 20 µM compound; 2 h
Experimental: MA-10 Leydig tumor cells were maintained in RPMI medium supplemented with 10% horse serum and seeded in 24 well plates to achieve 60–80% confluency after 2–3 days. Cells were washed with serum free medium twice and incubated in a 5% CO2 incubator at 37°C for 2 h. Following incubation, cells were treated with BC8-15, BC8-15A, or BC8-15C by replacing the media with 300 µL RPMI medium containing test compounds or vehicle. Media were collected after incubation for 2 h at 37°C. Progesterone levels in the media were measured using a progesterone ELISA kit (Neogen, Lexington, KY). Protein levels were determined by lysing cells in lysis buffer (50 mM Tris HCl (pH 7.5), 150 mM NaCl, 1% Triton X-100, 2 mM PMSF (supplemented with a Complete Protease Inhibitor Tablet (Roche, Nutley, NJ)) and measuring the protein concentration using a BCA protein assay kit (Pierce, Rockford, IL).

recombinant human PDE1C = target: T7, recombinant human PDE1C (Homo sapiens, UniProt Q14123); assay: In vitro PDE assay (Ba(OH)2 precipitation), PDE1C; type: biochemical; settings: 120 nM cGMP substrate; mean ± SD of three independent experiments
T7 construct: purchased BPS Bioscience Inc
Experimental: as §1

recombinant human PDE5A1 = target: T8, recombinant human PDE5A1 (Homo sapiens, UniProt O76074); assay: In vitro PDE assay (Ba(OH)2 precipitation), PDE5A; type: biochemical; settings: 520 nM cGMP substrate; mean ± SD of three independent experiments
T8 construct: purchased BPS Bioscience Inc
Experimental: as §1

human PDE7A = target: T9, human PDE7A (Homo sapiens, UniProt Q13946); assay: In vitro PDE assay (Ba(OH)2 precipitation), PDE7A; type: biochemical; settings: for IC50: 10 nM cAMP substrate, mean ± SD of three independent experiments
T9 construct: purchased BIOMOL International

human PDE4A10 = target: T10, human PDE4A10 (Homo sapiens, UniProt P27815); assay: In vitro PDE assay (Ba(OH)2 precipitation), PDE4A; type: biochemical; settings: 50 nM cAMP substrate
T10 construct: gift from Dr. Hengming Ke

[3] = system: primary Leydig cells from wild type mice; assay: Testosterone production from primary Leydig cells, wild type mice; type: cell-based, mouse; settings: 3 h, rolipram 20 µM, BC8-15 10 µM and 40 µM
Experimental: (§2) Leydig cells were isolated from testes of wild type and PDE8A^−/−/B^−/− knock-out adult mice as previously described. Digested tissue from decapsulated mouse testis was enriched for interstitial cells by filtration as previously described. Collected cells were resuspended in DMEM/F-12 medium supplemented with 1 mg/mL BSA and 150 µL aliquots were dispensed into 48-well plates. After permitting cells to recover at 37°C for 3 h, 30 µL of media with test compounds or vehicle was added to replicate wells. Media were collected after incubation for 3 h and stored at −20°C. Testosterone released into the media was measured by a testosterone ELISA kit (Neogen, Lexington, KY).

[4] = system: primary Leydig cells from PDE8A−/−/B−/− knock-out mice; assay: Testosterone production from primary Leydig cells, PDE8A-/-/B-/- knock-out mice; type: cell-based, mouse; settings: 3 h, rolipram 20 µM, BC8-15 10 µM and 40 µM
Experimental: as §2

murine PDE8A1 = system: T11, murine PDE8A1; assay: Yeast-based 5FOA growth HTS with PDE8A-expressing S. pombe strain CHP1204; type: cell-based; settings: Known Bioactives Collection screen
T11 construct: expressed in transfected cells; host or cells: Schizosaccharomyces pombe strain CHP1204 (PDE8A1 integrated at the cgs2 locus)
Experimental: Cyclic nucleotide-dependent growth in 5FOA medium was monitored in 50 µL cultures in 384-well microtiter plates (untreated, flat clear bottom). Cells were inoculated at an initial cell density of 0.5–2×10^5 cells/mL. Previously described optimized pre-growth conditions for each strain were used to repress the fbp1-ura4^+ reporter prior to inoculation into 5FOA medium, as cells that are already expressing the Ura4 enzyme would be 5FOA-sensitive even upon exposure to a PDE inhibitor [18]. Following a 48-h incubation at 30°C, plates were vortexed and optical densities (600 nm) were measured. The experiments with the PDE8A-expressing strain (CHP1204) were performed with 0.5 mM cAMP in the pre-growth medium and 40 µM cAMP in the 5FOA medium. […]
The suitability and quality of the assay conditions for high throughput screening was evaluated by a Z factor test as previously described, [23], using DMSO (0.2%) as a negative control, and either 5 mM cAMP, 10 µM BC69, or 20 µM BC69 as positive controls. […] After 48 h growth at 30°C, the optical density (OD600) of each well was measured using a plate reader. Composite Z scores were calculated for each compound by scaling the vector [Zscore_A, Zscore_B] by the cosine correlation with the diagonal (i.e. identical Z-scores in both replicates).

[5] = mean ± SD of three independent experiments

T7 sequence (Q14123 whole entry): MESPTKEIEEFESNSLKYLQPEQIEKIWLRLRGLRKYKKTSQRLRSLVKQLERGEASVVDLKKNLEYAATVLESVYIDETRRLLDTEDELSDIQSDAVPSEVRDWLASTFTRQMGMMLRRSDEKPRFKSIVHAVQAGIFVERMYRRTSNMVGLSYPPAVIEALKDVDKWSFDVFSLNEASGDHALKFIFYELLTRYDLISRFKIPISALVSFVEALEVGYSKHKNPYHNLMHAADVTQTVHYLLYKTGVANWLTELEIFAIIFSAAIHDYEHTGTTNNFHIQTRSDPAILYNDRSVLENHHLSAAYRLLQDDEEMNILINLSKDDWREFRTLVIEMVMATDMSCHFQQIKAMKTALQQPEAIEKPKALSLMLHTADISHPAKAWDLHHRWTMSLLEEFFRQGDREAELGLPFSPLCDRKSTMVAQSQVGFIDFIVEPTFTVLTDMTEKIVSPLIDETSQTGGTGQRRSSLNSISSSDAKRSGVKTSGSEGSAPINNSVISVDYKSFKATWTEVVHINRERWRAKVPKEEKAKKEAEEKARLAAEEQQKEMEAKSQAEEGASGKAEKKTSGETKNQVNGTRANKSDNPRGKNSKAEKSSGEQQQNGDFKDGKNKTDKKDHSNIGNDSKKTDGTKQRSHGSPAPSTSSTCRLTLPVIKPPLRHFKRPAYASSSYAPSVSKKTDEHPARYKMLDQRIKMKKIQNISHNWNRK
T6 sequence (Q9HCR9 whole entry): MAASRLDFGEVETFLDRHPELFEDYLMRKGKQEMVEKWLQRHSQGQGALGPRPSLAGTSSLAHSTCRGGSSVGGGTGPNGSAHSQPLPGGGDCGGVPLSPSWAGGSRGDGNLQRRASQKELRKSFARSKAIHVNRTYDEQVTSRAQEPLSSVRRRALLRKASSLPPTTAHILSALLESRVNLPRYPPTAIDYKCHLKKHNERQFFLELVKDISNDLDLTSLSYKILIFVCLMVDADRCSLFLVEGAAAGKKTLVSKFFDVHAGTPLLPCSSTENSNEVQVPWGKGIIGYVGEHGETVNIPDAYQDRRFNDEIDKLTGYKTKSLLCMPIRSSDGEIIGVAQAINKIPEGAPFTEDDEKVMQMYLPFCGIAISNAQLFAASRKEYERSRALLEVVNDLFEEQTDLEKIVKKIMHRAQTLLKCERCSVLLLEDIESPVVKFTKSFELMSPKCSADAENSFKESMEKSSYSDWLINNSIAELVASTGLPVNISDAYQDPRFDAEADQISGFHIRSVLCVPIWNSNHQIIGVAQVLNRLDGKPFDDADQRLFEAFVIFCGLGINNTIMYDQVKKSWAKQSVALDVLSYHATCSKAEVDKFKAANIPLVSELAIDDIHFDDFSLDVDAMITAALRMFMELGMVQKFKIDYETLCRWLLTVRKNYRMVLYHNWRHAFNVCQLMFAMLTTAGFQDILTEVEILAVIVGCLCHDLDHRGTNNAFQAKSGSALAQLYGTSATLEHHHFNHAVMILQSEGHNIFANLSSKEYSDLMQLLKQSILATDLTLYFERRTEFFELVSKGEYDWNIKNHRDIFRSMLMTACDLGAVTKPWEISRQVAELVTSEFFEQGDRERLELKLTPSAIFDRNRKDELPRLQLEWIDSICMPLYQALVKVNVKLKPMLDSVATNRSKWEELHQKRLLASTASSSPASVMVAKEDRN
T1 sequence (Q13370 whole entry): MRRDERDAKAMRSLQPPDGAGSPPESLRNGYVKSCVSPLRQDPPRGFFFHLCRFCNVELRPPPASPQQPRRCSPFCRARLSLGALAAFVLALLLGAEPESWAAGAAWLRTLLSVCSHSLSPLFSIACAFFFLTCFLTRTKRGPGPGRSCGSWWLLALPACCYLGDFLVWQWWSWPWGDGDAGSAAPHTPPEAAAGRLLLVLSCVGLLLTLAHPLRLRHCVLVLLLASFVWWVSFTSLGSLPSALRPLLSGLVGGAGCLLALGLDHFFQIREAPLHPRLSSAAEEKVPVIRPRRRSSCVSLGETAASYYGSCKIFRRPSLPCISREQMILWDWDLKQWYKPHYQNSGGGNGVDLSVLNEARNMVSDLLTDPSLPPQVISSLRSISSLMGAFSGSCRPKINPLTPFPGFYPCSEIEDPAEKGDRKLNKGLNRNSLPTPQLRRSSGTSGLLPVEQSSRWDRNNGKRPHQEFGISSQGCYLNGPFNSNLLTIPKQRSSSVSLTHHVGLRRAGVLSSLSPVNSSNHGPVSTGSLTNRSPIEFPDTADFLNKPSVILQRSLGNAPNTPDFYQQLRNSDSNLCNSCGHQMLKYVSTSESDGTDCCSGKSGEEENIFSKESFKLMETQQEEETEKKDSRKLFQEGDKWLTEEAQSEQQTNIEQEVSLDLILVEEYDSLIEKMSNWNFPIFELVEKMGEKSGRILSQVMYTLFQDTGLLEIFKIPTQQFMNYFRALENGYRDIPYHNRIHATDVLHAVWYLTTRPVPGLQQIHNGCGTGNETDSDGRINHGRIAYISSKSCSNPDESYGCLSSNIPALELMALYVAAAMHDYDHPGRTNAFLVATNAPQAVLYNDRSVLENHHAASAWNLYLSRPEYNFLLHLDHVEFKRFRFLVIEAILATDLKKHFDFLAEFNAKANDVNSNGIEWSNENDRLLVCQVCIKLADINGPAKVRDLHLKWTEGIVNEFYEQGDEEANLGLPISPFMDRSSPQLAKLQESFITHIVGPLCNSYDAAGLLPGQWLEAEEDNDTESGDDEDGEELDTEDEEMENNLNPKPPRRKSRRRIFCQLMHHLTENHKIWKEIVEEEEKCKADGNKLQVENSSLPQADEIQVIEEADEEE
T3 sequence (Q9Y233 1-779 isoform Q9Y233-1): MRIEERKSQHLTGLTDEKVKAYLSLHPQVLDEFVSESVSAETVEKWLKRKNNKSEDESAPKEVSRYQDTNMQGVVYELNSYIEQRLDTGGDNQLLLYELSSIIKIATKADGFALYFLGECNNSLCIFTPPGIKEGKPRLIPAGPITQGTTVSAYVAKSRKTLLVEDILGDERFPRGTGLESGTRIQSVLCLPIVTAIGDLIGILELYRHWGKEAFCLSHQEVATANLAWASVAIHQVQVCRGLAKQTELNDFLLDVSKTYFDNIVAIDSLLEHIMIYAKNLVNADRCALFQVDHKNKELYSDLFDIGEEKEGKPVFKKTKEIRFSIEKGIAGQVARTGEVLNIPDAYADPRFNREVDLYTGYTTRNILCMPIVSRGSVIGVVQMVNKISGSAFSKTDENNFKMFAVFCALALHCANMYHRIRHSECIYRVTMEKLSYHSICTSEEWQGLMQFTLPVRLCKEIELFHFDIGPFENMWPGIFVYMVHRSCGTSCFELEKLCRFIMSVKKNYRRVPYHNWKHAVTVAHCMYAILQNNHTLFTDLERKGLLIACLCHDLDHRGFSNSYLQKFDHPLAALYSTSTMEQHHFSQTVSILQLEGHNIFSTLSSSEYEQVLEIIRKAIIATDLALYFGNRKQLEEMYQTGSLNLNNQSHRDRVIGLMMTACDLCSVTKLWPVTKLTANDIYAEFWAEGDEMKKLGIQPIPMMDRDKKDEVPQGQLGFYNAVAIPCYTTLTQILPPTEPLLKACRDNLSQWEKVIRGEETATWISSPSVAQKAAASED
T4 sequence (O76083 1-533 isoform O76083-2): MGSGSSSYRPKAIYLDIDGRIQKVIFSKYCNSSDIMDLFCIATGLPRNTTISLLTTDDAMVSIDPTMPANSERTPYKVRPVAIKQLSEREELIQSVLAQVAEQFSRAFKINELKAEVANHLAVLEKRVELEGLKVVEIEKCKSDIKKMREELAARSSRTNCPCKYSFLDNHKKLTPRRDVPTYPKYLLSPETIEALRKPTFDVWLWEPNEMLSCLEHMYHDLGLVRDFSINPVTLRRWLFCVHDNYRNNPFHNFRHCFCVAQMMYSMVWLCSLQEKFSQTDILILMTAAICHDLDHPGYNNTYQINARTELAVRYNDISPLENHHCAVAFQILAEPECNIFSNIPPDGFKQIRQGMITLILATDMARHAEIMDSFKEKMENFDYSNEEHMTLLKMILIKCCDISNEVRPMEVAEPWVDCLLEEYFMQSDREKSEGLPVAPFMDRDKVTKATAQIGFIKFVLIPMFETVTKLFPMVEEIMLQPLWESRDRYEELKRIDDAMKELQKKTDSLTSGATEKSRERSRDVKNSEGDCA
T9 sequence (Q13946 whole entry): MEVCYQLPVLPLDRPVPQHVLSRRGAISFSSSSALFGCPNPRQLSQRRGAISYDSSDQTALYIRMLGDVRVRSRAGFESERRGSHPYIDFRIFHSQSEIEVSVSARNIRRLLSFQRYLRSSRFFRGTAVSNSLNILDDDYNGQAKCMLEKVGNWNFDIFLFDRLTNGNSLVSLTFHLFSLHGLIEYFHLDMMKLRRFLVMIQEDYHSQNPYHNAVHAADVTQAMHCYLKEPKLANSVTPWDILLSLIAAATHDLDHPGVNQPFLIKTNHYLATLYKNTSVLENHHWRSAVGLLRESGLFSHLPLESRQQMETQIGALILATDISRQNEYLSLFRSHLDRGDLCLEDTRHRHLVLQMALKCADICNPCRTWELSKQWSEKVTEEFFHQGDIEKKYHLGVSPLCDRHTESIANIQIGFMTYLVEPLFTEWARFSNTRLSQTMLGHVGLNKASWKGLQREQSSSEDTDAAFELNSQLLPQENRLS

Q: Which “sensitivity of PDE8 enzymes to inhibitor” value (PDE8 enzymes) does the source give for CC(C)Cn1c(=O)n(C)c(=O)c2[nH]cnc21 [3-isobutyl-1-methylxanthine (IBMX), 3-isobutyl-1-methylxanthine] here?
A: The value was “insensitive”.

Q: For Cc1nnc2c3ccccc3nc(Nc3cccc(C(=O)O)c3)n12 [BC8-15A], which IC50 (recombinant human PDE3B) is on record?
A: The IC50 was over 20 µM.

Q: What about the IC50 (recombinant human PDE8A; [5]) of the same compound?
A: The IC50 was 1.59 ± 0.3 µM.

Q: And the IC50 [1]?
A: Its IC50 is 2.3 ± 0.7 µM.

Q: And the IC50 (recombinant human PDE9A2)?
A: Its IC50 is over 20 µM.

Q: What about the IC50 (rat PDE2A) of the same compound?
A: The IC50 was 5.2 ± 2 µM.

Q: And the IC50 [2]?
A: Its IC50 is 1 µM.

Q: And the “increase in progesterone release compared to untreated cells” value (MA-10 Leydig tumor cells)?
A: The value was “five-fold”.

Q: And the IC50 (recombinant human PDE1C)?
A: The IC50 was over 20 µM.

Q: What about the IC50 (recombinant human PDE5A1) of the same compound?
A: Its IC50 is over 20 µM.

Q: And the IC50 (human PDE7A)?
A: The IC50 was 8.88 ± 3.9 µM.

Q: What about the IC50 (human PDE4A10; [5]) of the same compound?
A: The IC50 was 1.59 ± 0.1 µM.

Q: Which results are given for CCc1nnc2c3ccccc3nc(Nc3cccc(C)c3)n12 [BC8-15C]?
A: IC50 (recombinant human PDE3B): > 20 µM; IC50 (recombinant human PDE8A; [5]): 59.3 ± 14.2 µM; IC50 [1]: 1.5 ± 1.2 µM; IC50 (recombinant human PDE9A2): > 20 µM; IC50 (rat PDE2A): > 20 µM; IC50 [2]: 0.08 ± 0.05 µM; increase in progesterone release compared to untreated cells (MA-10 Leydig tumor cells): little or no effect; IC50 (recombinant human PDE1C): > 20 µM; IC50 (recombinant human PDE5A1): > 20 µM; IC50 (human PDE7A): 14.2 ± 6.4 µM

Q: What does the source list for CCc1nnc2c3ccccc3nc(Nc3cccc(C(=O)O)c3)n12 [BC8-15]?
A: testosterone release [3]: dose-dependent elevation; IC50 (recombinant human PDE3B): > 20 µM; IC50 (recombinant human PDE8A): 0.28 µM; IC50 [1]: 1.6 ± 0.2 µM; IC50 (recombinant human PDE9A2): > 20 µM; IC50 (rat PDE2A): 15.7 ± 2.7 µM; IC50 [2]: 1.2 ± 0.7 µM; increase in testosterone production [4]: two-fold increase; increase in progesterone release compared to untreated cells (MA-10 Leydig tumor cells): > 10 fold; IC50 (recombinant human PDE1C): 8.4 ± 3 µM; IC50 (recombinant human PDE5A1): 16.7 ± 2.3 µM; IC50 (human PDE7A): 6.46 µM; fold less activity against PDE7A (vs PDE8A/PDE4A) (human PDE7A; ratio of IC50 values): 23 fold; IC50 (human PDE4A10): 0.22 µM

Q: With OCCN(CCO)c1nc(N2CCCCC2)c2nc(N(CCO)CCO)nc(N3CCCCC3)c2n1 [dipyridamole] as the compound, how does the “activity in PDE8A yeast growth screen” value (murine PDE8A1) read?
A: Its value is “no activity”.

Q: And the “sensitivity of PDE8 enzymes to inhibitor” value (PDE8 enzymes)?
A: Its value is “only weakly inhibited”.

Q: For C[C@]12CC[C@H](O)C[C@@H]1CC[C@@H]1[C@@H]2CC[C@]2(C)C(=O)CC[C@@H]12 [epiandrosterone, reference compound], which inhibition at 32 µM (recombinant human PDE8A; 32 µM compound, data not shown) is on record?
A: The inhibition at 32 µM was 17%.

Q: What about the “composite Z score, 5FOA-resistant growth of PDE8A1-expressing strain” value (murine PDE8A1; 40 µM cAMP in 5FOA medium, 48 h) of the same compound?
A: The value was 12.9.

Q: For COc1ccc(C2CNC(=O)C2)cc1OC1CCCC1 (stereo not shown) [rolipram, reference compound], which testosterone release [3] is on record?
A: Its testosterone release is “no response”.

Q: What about the “increase in testosterone production” value [4] of the same compound?
A: The value was “two-fold increase”.

Q: What about the “increase in progesterone release compared to untreated cells” value (MA-10 Leydig tumor cells) of the same compound?
A: The value was “little or no effect”.
